Results reported in patent publication US12203089B2, “Plants having increased tolerance to herbicides” (BASF SE, priority 2015, dated 2025).

Assays:
Assay type in all cases: in vivo
[1] = system: Brassica napus expressing BnaA03g55200D (SEQ ID 12) variant S1038F; assay: 6-well plate injury test, T1 seeds on vermiculite; conditions: 7 days after treatment
Experimental: (§1) Transgenic Brassica napus plants are assayed for improved tolerance to azine herbicides like e. g. 6-cyclopentyl-N4-(2,3,4,5,6-pentafluorophenyl)-1,3,5-triazine-2,4-diamine in 6-well plates. Therefore, 5-6 T1 seeds are sown on vermiculite and watered with half-strength murashige skoog nutrient solution, pH 5.8 (Murashige and Skoog (1962) Physiologia Plantarum 15: 473-497). Compounds are dissolved in dimethylsulfoxid (DMSO) and added to the medium (final DMSO concentration 0.1%). Multi well plates are incubated in a growth chamber at 22° C., 75% relative humidity and 110 μmol Phot*m^−2*s^−1 with 14: 10 h light: dark photoperiod. Growth inhibition is evaluated seven to ten days after seeding in comparison to wild type plants. Plant injury is rated on a scale of 0% to 100%, 0% being no injury and 100% being complete death.

[2] = system: Brassica napus expressing BnaA03g55200D (SEQ ID 12) variant S1041L; assay: 6-well plate injury test, T1 seeds on vermiculite; conditions: 7 days after treatment
Experimental: as §1

[3] = system: Brassica napus expressing BnaA03g52020D (SEQ ID 15) variant G1015R; assay: Greenhouse herbicide tolerance, pre emergent; conditions: 7 days after treatment
Experimental: (§2) T1/T2 transgenic plants of Brassica napus containing cellulose synthase sequences or mutated gene variants thereof are tested for improved tolerance to herbicides in greenhouse studies with azine herbicides. For the pre-emergence treatment, the herbicides are applied directly after sowing by means of finely distributing nozzles. The containers are irrigated gently to promote germination and growth and subsequently covered with transparent plastic hoods until the plants have rooted. This cover causes uniform germination of the test plants, unless this has been impaired by the herbicides. For post emergence treatment, the test plants are first grown to a height of 3 to 15 cm, depending on the plant habit, and only then treated with the herbicides. For this purpose, the test plants are either sown directly, and grown in the same containers or they are first grown separately and transplanted into the test containers a few days prior to treatment.
(§3) Herbicide injury evaluations are taken at 1, 2 and 3 weeks after treatment. Plant biomass reduction is rated on a scale of 0% to 100%, 0% being no reduction of biomass compared to untreated control, and 100% being complete absence of biomass.

[4] = system: Brassica napus expressing BnaAnng01240D (SEQ ID 20) variant S1038F; assay: Greenhouse herbicide tolerance, pre emergent; conditions: 7 days after treatment
Experimental: as §2, §3

[5] = system: Brassica napus wildtype; assay: Greenhouse herbicide tolerance, pre emergent; conditions: 1.95 g/ha, 7 days after treatment
Experimental: as §2, §3

[6] = system: Arabidopsis thaliana expressing AtCesA3_S983F_S1040L (SEQ ID 3); assay: 48-well plate growth inhibition, T2 seeds, tolerance factor; conditions: based on IC50 values of growth inhibition, seven to ten days after seeding
Experimental: Transgenic Arabidopsis thaliana plants (T2) are assayed for improved tolerance to azine herbicides like e. g. 6-cyclopentyl-N4-(2,3,4,5,6-pentafluorophenyl)-1,3,5-triazine-2,4-diamine in 48-well plates. Therefore, T2 seeds are surface sterilized by stirring for 5 min in ethanol+water (70+30 by volume), rinsing one time with ethanol+water (70+30 by volume) and two times with sterile, deionized water. The seeds are resuspended in 0.1% agar dissolved in water (w/v) Four to five seeds per well are plated on solid nutrient medium consisting of half-strength murashige skoog nutrient solution, pH 5.8 (Murashige and Skoog (1962) Physiologia Plantarum 15: 473-497). Compounds are dissolved in dimethylsulfoxid (DMSO) and added to the medium prior solidification (final DMSO concentration 0.1%). Multi well plates are incubated in a growth chamber at 22° C., 75% relative humidity and 110 μmol Phot*m^−2*s^−1 with 14:10 h light:dark photoperiod. Growth inhibition is evaluated seven to ten days after seeding in comparison to wild type plants. Tolerance factors are calculated based on IC50 values of growth inhibition of transformed versus non-transformed Arabidopsis plants.

[7] = system: Brassica napus expressing BnaA01g04600D (SEQ ID 21) variant G1012R; assay: 6-well plate injury test, T1 seeds on vermiculite; conditions: BnaA01g04600D G1012R event 1, 7 days after treatment
Experimental: as §1

[8] = system: Brassica napus wildtype; assay: 6-well plate injury test, seeds on vermiculite
Experimental: as §1

[9] = system: Brassica napus expressing BnaAnng01240D (SEQ ID 20) variant S1041L; assay: Greenhouse herbicide tolerance, post emergent; conditions: 7 days after treatment
Experimental: as §2, §3

Nc1nc(Nc2c(F)c(F)c(F)c(F)c2F)nc(C2CCCC2)n1 [6-cyclopentyl-N4-(2,3,4,5,6-pentafluorophenyl)-1,3,5-triazine-2,4-diamine]
average phytotox value ([1]; BnaA03g55200D S1038F event 1, 5*10^-8M): 40%
average phytotox value ([1]; BnaA03g55200D S1038F event 1, 10^-6M): 80%
average phytotox value ([1]; BnaA03g55200D S1038F event 1, 10^-7M): 75%
average phytotox value ([1]; BnaA03g55200D S1038F event 1, 10^-8M): 15%
average phytotox value ([1]; BnaA03g55200D S1038F event 1, 10^-9M): 0%
average phytotox value ([1]; BnaA03g55200D S1038F event 2, 5*10^-8M): 65%
average phytotox value ([1]; BnaA03g55200D S1038F event 2, 10^-6M): 90%
average phytotox value ([1]; BnaA03g55200D S1038F event 2, 10^-7M): 75%
average phytotox value ([1]; BnaA03g55200D S1038F event 2, 10^-8M): 0%
average phytotox value ([1]; BnaA03g55200D S1038F event 2, 10^-9M): 0%
average phytotox value ([1]; BnaA03g55200D S1038F event 3, 5*10^-8M): 65%
average phytotox value ([1]; BnaA03g55200D S1038F event 3, 10^-6M): 90%
average phytotox value ([1]; BnaA03g55200D S1038F event 3, 10^-7M): 80%
average phytotox value ([1]; BnaA03g55200D S1038F event 3, 10^-8M): 0%
average phytotox value ([1]; BnaA03g55200D S1038F event 3, 10^-9M): 0%
average phytotox value ([2]; BnaA03g55200D S1041L event 1, 5*10^-8M): 35%
average phytotox value ([2]; BnaA03g55200D S1041L event 1, 10^-6M): 95%
average phytotox value ([2]; BnaA03g55200D S1041L event 1, 10^-7M): 75%
average phytotox value ([2]; BnaA03g55200D S1041L event 1, 10^-8M): 0%
average phytotox value ([2]; BnaA03g55200D S1041L event 1, 10^-9M): 0%
average phytotox value ([2]; BnaA03g55200D S1041L event 2, 5*10^-8M): 50%
average phytotox value ([2]; BnaA03g55200D S1041L event 2, 10^-6M): 90%
average phytotox value ([2]; BnaA03g55200D S1041L event 2, 10^-7M): 80%
average phytotox value ([2]; BnaA03g55200D S1041L event 2, 10^-8M): 10%
average phytotox value ([2]; BnaA03g55200D S1041L event 2, 10^-9M): 0%
average phytotox value ([2]; BnaA03g55200D S1041L event 3, 5*10^-8M): 60%
average phytotox value ([2]; BnaA03g55200D S1041L event 3, 10^-6M): 85%
average phytotox value ([2]; BnaA03g55200D S1041L event 3, 10^-7M): 70%
average phytotox value ([2]; BnaA03g55200D S1041L event 3, 10^-8M): 0%
average phytotox value ([2]; BnaA03g55200D S1041L event 3, 10^-9M): 0%
average phytotox value ([2]; BnaA03g55200D S1041L event 4, 5*10^-8M): 50%
average phytotox value ([2]; BnaA03g55200D S1041L event 4, 10^-6M): 85%
average phytotox value ([2]; BnaA03g55200D S1041L event 4, 10^-7M): 60%
average phytotox value ([2]; BnaA03g55200D S1041L event 4, 10^-8M): 10%
average phytotox value ([2]; BnaA03g55200D S1041L event 4, 10^-9M): 0%
average phytotox value ([3]; 1.95 g/ha): 27%
average phytotox value ([3]; 3.9 g/ha): 0%
average phytotox value ([3]; 7.8 g/ha): 0%
average phytotox value ([3]; 15.6 g/ha): 21%
average phytotox value ([4]; 1.95 g/ha): 1%
average phytotox value ([4]; 3.9 g/ha): 14%
average phytotox value ([4]; 7.8 g/ha): 8%
average phytotox value ([4]; 15.6 g/ha): 26%
average phytotox value [5]: 18%
Relative tolerance rate as compared to non-transgenic Arabidopsis plants (non-transgenic = 1.0) [6]: 10

Nc1nc(Nc2nc(F)c(F)c(Cl)c2F)nc(C2(F)CCCC2)n1 [N2-(4-chloro-3,5,6-trifluoro-2-pyridyl)-6-(1-fluorocyclopentyl)-1,3,5-triazine-2,4-diamine]
average phytotox value ([7]; 5*10-7): 75%
average phytotox value ([7]; 5*10^-8M): 10%
average phytotox value ([7]; 10^-6M): 80%
average phytotox value ([7]; 10^-7M): 10%
average phytotox value ([7]; 10^-8M): 0%
average phytotox value ([8]; 5*10-7, 7 days after treatment): 78%
average phytotox value ([8]; 5*10^-8M, 7 days after treatment): 18%
average phytotox value ([8]; 10^-6M, 7 days after treatment): 85%
average phytotox value ([8]; 10^-7M, 7 days after treatment): 56%
average phytotox value ([8]; 10^-8M, 7 days after treatment): 8%
average phytotox value ([9]; 7.8 g/ha): 6%
average phytotox value ([9]; 15.6 g/ha): 9%
average phytotox value ([9]; 31.25 g/ha): 54%
average phytotox value ([9]; 62.5 g/ha): 64%
Relative tolerance rate as compared to non-transgenic Arabidopsis plants (non-transgenic = 1.0) [6]: 4
